Our source for the EC50 values is patent US7528170B2, “Sulfonamide derivatives for the treatment of diseases” (Pfizer Inc., priority 2004, dated 2009).

Molecules are shown by their SMILES.

T1 sequence (P07550 whole entry): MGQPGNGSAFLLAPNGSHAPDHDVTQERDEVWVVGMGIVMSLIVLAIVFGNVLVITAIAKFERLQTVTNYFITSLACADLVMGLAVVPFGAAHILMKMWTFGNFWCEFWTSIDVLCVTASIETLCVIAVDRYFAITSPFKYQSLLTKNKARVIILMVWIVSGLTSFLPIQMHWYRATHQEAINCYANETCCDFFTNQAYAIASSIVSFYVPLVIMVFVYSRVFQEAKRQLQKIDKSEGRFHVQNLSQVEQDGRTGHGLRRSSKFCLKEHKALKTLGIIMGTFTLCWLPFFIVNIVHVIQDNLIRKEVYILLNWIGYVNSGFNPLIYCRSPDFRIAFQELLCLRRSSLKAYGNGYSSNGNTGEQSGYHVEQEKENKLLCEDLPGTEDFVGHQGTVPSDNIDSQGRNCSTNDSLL

This experiment addresses T1, human β2 adrenergic receptor (Homo sapiens, UniProt P07550).
T1 construct: expressed in transfected cells; host or cells: CHO (Chinese Hamster Ovary) cells, CHOhβ2
The experiment is described as follows: β2 cAMP agonist potency assay in CHOhβ2 cells (cAMP-Flashplate). Format: cell-based. As to conditions: CHO cells recombinantly expressing the human β2 adrenergic receptor; compounds incubated with cells for 1 hour; data as % Isoprenaline activity, four parameter sigmoid fit. On the procedure:
According to another alternative, the agonist potency for the β2 receptor of the compounds of the formula (1) may also be determined by the measure of the concentration of compound according to the present invention required to produce half maximal effect (EC50) for the β2 receptor.
10 mM/100% DMSO (dimethylsulfoxide) stock of compound is diluted to required top dose in 4% DMSO. This top dose is used to construct a 10-point semi-log dilution curve, all in 4% DMSO. Isoprenaline (Sigma, 1-5627) was used as a standard in every experiment and for control wells on each plate. Data was expressed as % Isoprenaline response.
CHO (Chinese Hamster Ovary) cells recombinantly expressing the human β2 adrenergic receptor (from Kobilka et al., PNAS 84: 46-50, 1987 and Bouvier et al., Mol Pharmacol 33: 133-139 1988 CHOhβ2) were grown in Dulbeccos MEM/NUT MIX F12 (Gibco, 21331-020) supplemented with 10% foetal bovine serum (Sigma, F4135, Lot 90K8404 Exp 09/04), 2 mM glutamine (Sigma, G7513), 500 μg/ml geneticin (Sigma, G7034) and 10 μg/ml puromycin (Sigma, P8833). Cells were seeded to give about 90% confluency for testing.
25 μl/well each dose of compound was transferred into a cAMP-Flashplate® (NEN, SMP004B), with 1% DMSO as basal controls and 100 nM Isoprenaline as max controls. This was diluted 1:2 by the addition of 25 μl/well PBS. Cells were trypsinised (0.25% Sigma, T4049), washed with PBS (Gibco, 14040-174) and resuspended in stimulation buffer (NEN, SMP004B) to give 1×10^6 cells/ml CHOhB2. Compounds were incubated with 50 μl/well cells for 1 hour. Cells were then lysed by the addition of 100 μl/well detection buffer (NEN, SMP004B) containing 0.18 μCi/ml ^125I-cAMP (NEN, NEX-130) and plates were incubated at room temperature for a further 2 hours. The amount of ^125I-cAMP bound to the Flashplate® was quantified using a Topcount NXT (Packard), normal counting efficiency for 1 minute. Dose-response data was expressed as % Isoprenaline activity and fitted using a four parameter sigmoid fit. […] The following table illustrate the activity of the compounds of the invention: […]
For the compound `COc1cc(CNC(=O)Cc2cccc(CC(C)(C)NC[C@H](O)c3ccc(O)c(NS(C)(=O)=O)c3)c2)ccc1O` [Example 1, 2-(3-{2-[((2R)-2-Hydroxy-2-{4-hydroxy-3-[(methylsulfonyl)amino]phenyl}ethyl)amino]-2-methylpropyl}phenyl)-N-(4-hydroxy-3-methoxybenzyl)acetamide], the 50% effective concentration (EC50) (usually the concentration at which the effect is half-maximal) came to 0.03 nM.

With `CC(C)(Cc1cccc(CC(=O)NCc2ccc(-c3ccc(O)cc3)cc2)c1)NC[C@H](O)c1ccc(O)c(NS(C)(=O)=O)c1` [Example 2, N-[(4′-Hydroxybiphenyl-4-yl)methyl]-2-(3-{2-[((2R)-2-hydroxy-2-{4-hydroxy-3-[(methylsulfonyl)amino]phenyl}ethyl)amino]-2-methylpropyl}phenyl)acetamide], the EC50 is 0.24 nM.

On to `CC(C)(Cc1cccc(CC(=O)NCc2ccc3cc(O)ccc3c2)c1)NC[C@H](O)c1ccc(O)c(NS(C)(=O)=O)c1` [Example 6], for which the EC50 was 0.16 nM.

Consider `CC(C)(Cc1cccc(CC(=O)NCc2cccc(-c3ccc(O)cc3)c2)c1)NC[C@H](O)c1ccc(O)c(NS(C)(=O)=O)c1` [Example 7, N-[(4′-Hydroxybiphenyl-3-yl)methyl]-2-(3-{2-[((2R)-2-hydroxy-2-{4-hydroxy-3-[(methylsulfonyl)amino]phenyl}ethyl)amino]-2-methylpropyl}phenyl)acetamide], for which the half-maximal effective concentration (EC50) stood at 0.26 nM.

As for `CC(C)(Cc1cccc(CC(=O)NCC(C)(C)c2ccc(O)cc2)c1)NC[C@H](O)c1ccc(O)c(NS(C)(=O)=O)c1` [Example 9, 2-(3-{2-[((2R)-2-Hydroxy-2-(4-hydroxy-3-[(methylsulfonyl)amino]phenyl)ethyl)amino]-2-methylpropyl}phenyl)-N-[2-(4-hydroxyphenyl)-2-methylpropyl]acetamide], the concentration for a half-maximal effect (EC50) is 0.45 nM.

Turning to `CC(C)(Cc1cccc(CC(=O)N2CCc3cc(O)ccc3C2)c1)NC[C@H](O)c1ccc(O)c(NS(C)(=O)=O)c1` [Example 13, N-(2-Hydroxy-5-{(1R)-1-hydroxy-2-[(2-{3-[2-(6-hydroxy-3,4-dihydroisoquinolin-2(1H)-yl)-2-oxoethyl]phenyl}-1,1-dimethylethyl)amino]ethyl}phenyl)methanesulfonamide], the EC50 was found to be 0.08 nM.

With `CC(C)(Cc1cccc(CC(=O)NCCc2ccc(O)cc2)c1)NC[C@H](O)c1ccc(O)c(NS(C)(=O)=O)c1` [Example 15, 2-(3-{2-[((2R)-2-Hydroxy-2-{4-hydroxy-3-[(methylsulfonyl)amino]phenyl}ethyl)amino]-2-methylpropyl}phenyl)-N-[2-(4-hydroxyphenyl)ethyl]acetamide], the concentration giving a half-maximal response (EC50) stood at 0.09 nM.

In the case of `CC(C)(Cc1cccc(CC(=O)NCc2cc(O)cc(C(F)(F)F)c2)c1)NC[C@H](O)c1ccc(O)c(NS(C)(=O)=O)c1` [Example 20, 2-(3-{2-[((2R)-2-Hydroxy-2-{4-hydroxy-3-[(methylsulfonyl)amino]phenyl}ethyl)amino]-2-methylpropyl}phenyl)-N-[3-hydroxy-5-(trifluoromethyl)benzyl]acetamide], the EC50 turned out to be 0.29 nM.
